Reference: the supplement of paper PMC7600603

Tests used:
DLD1 NRF2-GOF [1] = assay: drug sensitivity score (DSS) cytotoxicity (DSS score); higher = more toxic; extreme values may be limits of the assay; conditions: 72 h; CellTox Green cytotoxicity
Method in brief: (§1)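 After growth in DMEM with 10% FBS, NRF2 wild-type and CRISPR-edited isogenic DLD1 cells were seeded in 384-well plates and given library compounds at 5 concentrations across a 10,000-fold range. Fluorescence from CellTox Green was taken on a Pherastar FS reader after 72 h and normalised against vehicle wells and 100-μM positive-control wells. From logistic dose-response fits of cytotoxicity came the TC50 and the drug sensitivity score, a normalised area under the curve.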

DLD1 NRF2-WT [2] = assay: as above; conditions: 72 h; CellTox Green cytotoxicity
Method in brief: as §1

DLD1 NRF2-WT [3] = conditions: 72 h; CellTiter-Glo viability
Method in brief: (§2)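 EC50 and drug sensitivity score, the latter a normalised area under the curve, were calculated from logistic dose-response fits. The fits had four parameters and used CellTiter-Glo viability data read on a Pherastar FS reader 72 h after treatment, normalised to vehicle wells and 100-μM positive-control wells. Treated cells were isogenic DLD1 colorectal cancer cells, NRF2 wild-type or CRISPR gain-of-function, exposed in 384-well plates to library compounds at 5 concentrations spanning a 10,000-fold range.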

DLD1 NRF2-WT [4] = assay: drug sensitivity score (DSS) viability (DSS score); higher = more sensitive; extreme values may be limits of the assay; conditions: 72 h; CellTiter-Glo viability
Method in brief: as §2

DLD1 NRF2-GOF [5] = assay: TC50 cytotoxicity; higher = less toxic; conditions: 72 h; CellTox Green cytotoxicity
Method in brief: as §1

DLD1 NRF2-WT [6] = assay: TC50 cytotoxicity; higher = less toxic; conditions: 72 h; CellTox Green cytotoxicity
Method in brief: as §1

EC50 viability (DLD1 NRF2-WT [3]) | SMILES | drug sensitivity score (DLD1 NRF2-GOF [1]) | drug sensitivity score (DLD1 NRF2-WT [2]) | drug sensitivity score (DLD1 NRF2-WT [4]) | TC50 cytotoxicity (DLD1 NRF2-GOF [5]) | TC50 cytotoxicity (DLD1 NRF2-WT [6])
0.0052 µM | CC[C@]1(O)C[C@H]2CN(CCc3c([nH]c4ccccc34)[C@@](C(=O)OC)(c3cc4c(cc3OC)N(C)[C@H]3[C@@](O)(C(=O)OC)[C@H](OC(C)=O)[C@]5(CC)C=CCN6CC[C@]43[C@@H]65)C2)C1 [Vinblastine] | 3.4 | 4.1 | 22.5 | > 1 µM | 
0.622 µM | CC(=O)OC[C@H]1O[C@@H]([S-])[C@H](OC(C)=O)[C@@H](OC(C)=O)[C@@H]1OC(C)=O.CCP(CC)CC.[Au+] [Auranofin] | 0 | 2.3 | 5.5 | > 2.5 µM | 0.818 µM
2.38 µM | COc1cc2c(cc1OC(C)C)[C@H](c1ccc(Cl)cc1)N(c1ccc(N(C)C[C@H]3CC[C@H](N4CCN(C)C(=O)C4)CC3)cc1)C(=O)C2 [NVP-CGM097] | 0 | 0 | 3.4 | > 25 µM | > 25 µM
9.91 µM | COc1ccc(CCc2nc3cc(-c4c(C)noc4C)ccc3n2C[C@H](C)N2CCOCC2)cc1Cl [SGC-CBP30] | 0.2 | 0.8 | 2.2 | > 25 µM | > 25 µM
> 50 µM | O=C(CCNC(=O)c1ccc(OC(F)(F)F)cc1)N[C@@H]1CCCc2ccccc21 [ML390] | 0 | 0 | 1.9 | > 50 µM | > 50 µM
7.67 µM | CCCCCCCCCCCCCCCCOP(=O)([O-])OCC[N+](C)(C)C [Miltefosine] | 9.7 | 11 | 13.1 | 10.4 µM | 7.4 µM
5.03 µM | CC1=NN(c2ccc(C(=O)O)cc2)C(=O)C1=Cc1ccc(-c2cc(C)c(C)cc2[N+](=O)[O-])o1 [C646] | 0 | 0 | 2.8 | > 25 µM | > 25 µM
3.29 µM | Nc1ccccc1NC(=O)c1ccc(CNc2nccc(-c3cccnc3)n2)cc1 [Mocetinostat] | 0 | 1.6 | 4 | > 10 µM | > 10 µM
4.5 µM | Cc1ccc(NC(=O)c2ccc(CN3CCN(C)CC3)cc2)cc1Nc1nccc(-c2cccnc2)n1 [Imatinib] | 0 | 0 | 1.2 | > 10 µM | > 10 µM
0.102 µM | CCS(=O)(=O)Nc1ccc(Oc2ccc(F)cc2F)c(-c2cn(C)c(=O)c3[nH]ccc23)c1 [Mivebresib] | 0 | 0 | 14.7 | > 10 µM | > 10 µM
0.0504 µM | C=CC(=O)N1CC/C(=C\c2ccc(F)c([N+](=O)[O-])c2)C(=O)/C(=C/c2ccc(F)c([N+](=O)[O-])c2)C1 [VLX1570] | 2.7 | 21.9 | 27.9 | 5.34 µM | 0.0677 µM
25.3 µM | O=C(O)C(=O)O.[NH-][C@@H]1CCCC[C@H]1[NH-].[Pt+2] [Oxaliplatin] |  |  | 3 |  | 
> 10 µM | CC[C@H](C)C(=O)O[C@H]1C[C@H](O)C=C2C=C[C@H](C)[C@H](CC[C@@H](O)C[C@@H](O)CC(=O)O)[C@H]21 [Pravastatin] | 0 | 0 | 0 | > 10 µM | > 10 µM
3.75 µM | CC(C)c1c(C(=O)Nc2ccccc2)c(-c2ccccc2)c(-c2ccc(F)cc2)n1CC[C@@H](O)C[C@@H](O)CC(=O)O [Atorvastatin] |  |  | 2.5 |  | 
0.207 µM | O=C(c1ccc(F)c(F)c1Nc1ccc(I)cc1F)N1CC(O)([C@@H]2CCCCN2)C1 [Cobimetinib] |  |  | 3 |  | 
0.191 µM | Cn1c(Nc2ccc(C(F)(F)F)cc2)nc2cc(Oc3ccnc(-c4ncc(C(F)(F)F)[nH]4)c3)ccc21 [NVP-RAF265] |  |  | 3.2 |  | 
 | N#Cc1ccc(COC[C@H]2O[C@@H](n3c(NCc4ccc(Cl)c(Cl)c4)nc4c(N)ncnc43)[C@H](O)[C@@H]2O)cc1 | 0 | 0 | 3.2 | > 10 µM | > 10 µM
